# According to ChEMBL document CHEMBL6109061, “Discovery of an Ultralong-acting Nondepolarizing Neuromuscular Blocker That Displays Short Onset Time and On-Demand Rapid Reversal by a Biocompatible Antagonist” (J Med Chem, 2025):
# Experiments:
# [1] = system: Rattus norvegicus; test: Neuromuscular block activity in propofol-induced anesthetized Sprague-Dawley rat model assessed as time duration of 0 to 25 percent recovery indices at 0.04 mg/kg, iv; format: functional
# [2] = system: Rattus norvegicus; test: Neuromuscular block activity in propofol-induced anesthetized Sprague-Dawley rat model assessed as time duration of 0 to 25 percent recovery indices at 0.032 mg/kg, iv; format: functional
# [3] = system: Rattus norvegicus; test: Neuromuscular block activity in propofol-induced anesthetized Sprague-Dawley rat model assessed as onset time required for twitch reduction at 1.5 mg/kg, iv; format: functional
# [4] = Hemolytic activity in rat RBC assessed as hemolysis rate at 2048 microg/ml relative to control; format: toxicity, cell-based, Erythrocyte; settings: red blood cells, at 2048 µg/mL, read-out: Activity
# [5] = target: Voltage-gated inwardly rectifying potassium channel KCNH2 (Homo sapiens, UniProt Q12809); test: Inhibition of hERG by Qpatch assay; format: toxicity
# [6] = Toxicity in Sprague-Dawley rat assessed as liver damage at 3 mg/kg, iv measured after 5 hrs by H and E staining based analysis; format: organism-based; settings: in vivo
# [7] = Mutagenicity in Salmonella typhimurium TA100 by AMES test; format: toxicity; settings: salmonella enterica subsp. enterica serovar typhimurium
# [8] = Toxicity in Sprague-Dawley rat assessed as kidney damage at 3 mg/kg, iv measured after 5 hrs by H and E staining based analysis; format: organism-based; settings: in vivo
# [9] = system: Rattus norvegicus; test: Neuromuscular block activity in propofol-induced anesthetized Sprague-Dawley rat model assessed as inhibition of twitch by measuring twitch intensity of quadriceps muscle at 0.2 mg/kg, iv administered as bolus dose by TOF watch monitor analysis relative to control; format: functional
# [10] = system: Rattus norvegicus; test: Neuromuscular block activity in propofol-induced anesthetized Sprague-Dawley rat model assessed as inhibition of twitch by measuring twitch intensity of quadriceps muscle at 3 mg/kg, iv administered as bolus dose by TOF watch monitor analysis relative to control; format: functional
# [11] = system: Rattus norvegicus; test: Neuromuscular block activity in propofol-induced anesthetized Sprague-Dawley rat model assessed as onset time required for twitch reduction at 3 mg/kg, iv; format: functional
# [12] = system: H9c2; test: Cytotoxicity against rat H9c2 cells assessed as cell viability at 150 microg/ml measured for 24 hrs by SRB assay; format: toxicity, cell-based; settings: h9c2, 24 h, dose 150 µg/ml
# [13] = system: Rattus norvegicus; test: Neuromuscular block activity in propofol-induced anesthetized Sprague-Dawley rat model assessed as inhibition of twitch by measuring twitch intensity of quadriceps muscle at 0.04 mg/kg, iv administered as bolus dose by TOF watch monitor analysis relative to control; format: functional
# [14] = system: Rattus norvegicus; test: Neuromuscular block activity in propofol-induced anesthetized Sprague-Dawley rat model assessed as time duration of 0 to 25 percent recovery indices at 1.5 mg/kg, iv; format: functional
# [15] = system: Rattus norvegicus; test: Neuromuscular block activity in propofol-induced anesthetized Sprague-Dawley rat model assessed as recovery time at 0.032 mg/kg, iv; format: functional
# [16] = Toxicity in Sprague-Dawley rat assessed as spleen damage at 3 mg/kg, iv measured after 5 hrs by H and E staining based analysis; format: organism-based; settings: in vivo
# [17] = system: Rattus norvegicus; test: Neuromuscular block activity in propofol-induced anesthetized Sprague-Dawley rat model assessed as onset time required for twitch reduction at 10 mg/kg, iv; format: functional
# [18] = system: Rattus norvegicus; test: Neuromuscular block activity in propofol-induced anesthetized Sprague-Dawley rat model assessed as time duration of 0 to 25 percent recovery indices at 0.2 mg/kg, iv; format: functional
# [19] = Mutagenicity in Salmonella typhimurium TA98 by AMES test; format: toxicity; settings: salmonella enterica subsp. enterica serovar typhimurium
# [20] = system: Rattus norvegicus; test: Neuromuscular block activity in propofol-induced anesthetized Sprague-Dawley rat model assessed as onset time required for twitch reduction at 0.032 mg/kg, iv; format: functional
# [21] = Toxicity in Sprague-Dawley rat assessed as heart damage at 3 mg/kg, iv measured after 5 hrs by H and E staining based analysis; format: organism-based; settings: in vivo
# [22] = Toxicity in iv dosed ICR mouse assessed as maximum tolerated dose; format: organism-based; settings: in vivo
# [23] = system: Rattus norvegicus; test: Neuromuscular block activity in propofol-induced anesthetized iv dosed Sprague-Dawley rat model assessed as effective dose; format: functional
# [24] = system: Rattus norvegicus; test: Neuromuscular block activity in propofol-induced anesthetized Sprague-Dawley rat model assessed as time duration of 0 to 25 percent recovery indices at 10 mg/kg, iv; format: functional
# [25] = Solubility of compound in water; format: physicochemical
# [26] = system: Rattus norvegicus; test: Neuromuscular block activity in propofol-induced anesthetized Sprague-Dawley rat model assessed as time duration of 0 to 25 percent recovery indices at 3 mg/kg, iv; format: functional
# [27] = Toxicity in Sprague-Dawley rat assessed as lung damage at 3 mg/kg, iv measured after 5 hrs by H and E staining based analysis; format: organism-based; settings: in vivo
# [28] = system: Rattus norvegicus; test: Neuromuscular block activity in propofol-induced anesthetized Sprague-Dawley rat model assessed as onset time required for twitch reduction at 0.04 mg/kg, iv; format: functional
# [29] = Hemolytic activity in human RBC assessed as hemolysis rate at 2048 microg/ml relative to control; format: toxicity, cell-based, Erythrocyte; settings: red blood cells, at 2048 µg/mL, read-out: Activity
# [30] = system: Rattus norvegicus; test: Neuromuscular block activity in propofol-induced anesthetized Sprague-Dawley rat model assessed as onset time required for twitch reduction at 0.2 mg/kg, iv; format: functional
# [31] = Mutagenicity in Salmonella typhimurium TA97a by AMES test; format: toxicity; settings: salmonella enterica subsp. enterica serovar typhimurium
# [32] = system: Rattus norvegicus; test: Neuromuscular block activity in propofol-induced anesthetized Sprague-Dawley rat model assessed as inhibition of twitch by measuring twitch intensity of quadriceps muscle at 10 mg/kg, iv administered as bolus dose by TOF watch monitor analysis relative to control; format: functional
# [33] = system: Rattus norvegicus; test: Neuromuscular block activity in propofol-induced anesthetized Sprague-Dawley rat model assessed as inhibition of twitch by measuring twitch intensity of quadriceps muscle at 1.5 mg/kg, iv administered as bolus dose by TOF watch monitor analysis relative to control; format: functional
# [34] = system: Rattus norvegicus; test: Neuromuscular block activity in propofol-induced anesthetized Sprague-Dawley rat model assessed as inhibition of twitch by measuring twitch intensity of quadriceps muscle at 0.032 mg/kg, iv administered as bolus dose by TOF watch monitor analysis relative to control; format: functional
# Voltage-gated inwardly rectifying potassium channel KCNH2, sequence (Q12809 whole entry): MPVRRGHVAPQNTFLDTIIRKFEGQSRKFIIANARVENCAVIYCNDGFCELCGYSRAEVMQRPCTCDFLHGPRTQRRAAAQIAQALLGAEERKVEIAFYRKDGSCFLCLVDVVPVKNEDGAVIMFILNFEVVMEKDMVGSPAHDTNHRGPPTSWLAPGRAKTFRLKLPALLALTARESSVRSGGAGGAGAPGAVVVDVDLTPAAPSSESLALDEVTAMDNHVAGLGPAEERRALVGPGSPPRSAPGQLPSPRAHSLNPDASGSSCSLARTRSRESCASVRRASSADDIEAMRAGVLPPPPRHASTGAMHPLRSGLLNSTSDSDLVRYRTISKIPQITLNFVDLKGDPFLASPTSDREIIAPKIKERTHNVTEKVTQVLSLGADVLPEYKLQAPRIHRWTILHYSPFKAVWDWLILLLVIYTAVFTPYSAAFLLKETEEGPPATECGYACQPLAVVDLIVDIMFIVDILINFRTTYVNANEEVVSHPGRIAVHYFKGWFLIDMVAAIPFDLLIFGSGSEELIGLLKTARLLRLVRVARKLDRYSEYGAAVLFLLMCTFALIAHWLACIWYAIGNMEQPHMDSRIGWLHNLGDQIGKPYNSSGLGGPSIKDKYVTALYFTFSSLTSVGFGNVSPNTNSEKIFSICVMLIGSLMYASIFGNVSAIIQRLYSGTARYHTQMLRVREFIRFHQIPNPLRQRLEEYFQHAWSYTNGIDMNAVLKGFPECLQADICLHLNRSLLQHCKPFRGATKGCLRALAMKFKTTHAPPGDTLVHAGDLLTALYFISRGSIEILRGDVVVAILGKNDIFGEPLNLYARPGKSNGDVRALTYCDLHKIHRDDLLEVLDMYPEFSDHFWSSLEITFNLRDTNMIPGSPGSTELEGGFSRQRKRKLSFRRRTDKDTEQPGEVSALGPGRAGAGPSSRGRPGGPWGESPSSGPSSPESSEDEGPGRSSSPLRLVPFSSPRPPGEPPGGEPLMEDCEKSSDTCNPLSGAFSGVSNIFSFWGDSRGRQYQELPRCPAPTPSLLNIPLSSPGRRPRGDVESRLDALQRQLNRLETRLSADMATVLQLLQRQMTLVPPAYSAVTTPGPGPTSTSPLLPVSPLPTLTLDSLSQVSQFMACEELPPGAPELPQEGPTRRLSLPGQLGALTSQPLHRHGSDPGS
smiles,measurement,setting,value
Cc1n2cc[n+]1Cc1ccc(cc1)Oc1ccc(cc1)C[n+]1ccn(c1C)CCCn1cc[n+](c1C)Cc1ccc(cc1)Oc1ccc(cc1)C[n+]1ccn(c1C)CCC2.[Cl-].[Cl-].[Cl-].[Cl-],Time,[1],102 min
same,Time,[2],35 min
same,Time,[3],13 s
same,hemolysis at 2048 microg/ml,[4],< 5%
same,IC50,[5],> 40 µM
same,Activity,[6],Non-toxic
same,Activity,[7],Non-toxic
same,Activity,[8],Non-toxic
same,inhibition in vivo at 0.2 mg/kg,[9],100%
same,inhibition in vivo at 3 mg/kg,[10],100%
same,Time,[11],9 s
same,Activity,[12],Non-toxic
same,inhibition in vivo at 0.04 mg/kg,[13],90%
same,Time,[14],>300 min
same,Time,[15],7.6 min
same,Activity,[16],Non-toxic
same,Time,[17],9 s
same,Time,[18],217 min
same,Activity,[19],Non-toxic
same,Time,[20],293 s
same,Activity,[21],Non-toxic
same,MTD,[22],550 mg/kg
same,ED50,[23],0.016 mg/kg
same,Time,[24],>300 min
same,solubility,[25],≥ 50 mM
same,Time,[26],>300 min
same,Activity,[27],Non-toxic
same,Time,[28],90 s
same,hemolysis at 2048 microg/ml,[29],< 5%
same,Time,[30],20.5 s
same,Activity,[31],Non-toxic
same,inhibition in vivo at 10 mg/kg,[32],100%
same,inhibition in vivo at 1.5 mg/kg,[33],100%
same,inhibition in vivo at 0.032 mg/kg,[34],90%
